Here are results for 23 compounds from patent US9271971B2, “Pyrido[3,4-B]indoles and methods of use” (Medivation Technologies, Inc., priority 2009, dated 2016).

Assay [1] deals with T1, human recombinant histamine H2 receptor (Homo sapiens, UniProt P25021).
T1 construct: expressed in transfected cells; host or cells: Chinese hamster ovary (CHO) K1 cells
Nature of the assay: Histamine H2 radioligand binding assay. The note with it: [125I]Aminopotentidine specific binding, read-out: Percentage Inhibition, Histamine Binding (1 μM) H2. The method, then: To evaluate in radioligand binding assays the activity of compounds of the invention, human recombinant histamine H2 receptor expressed in Chinese hamster ovary (CHO) K1 cells [Ruat, M., Proc. Natl. Acad. Sci. USA. (1990), 87(5):1658] in a 50 mM Phosphate buffer, pH 7.4 was used. Compounds of the invention were incubated with 0.1 nM [^125I]Aminopotentidine for 120 min. at 25° C. Non-specific binding was estimated in the presence of 3 μM Tiotidine. Receptor proteins were filtered and washed, the filters were then counted to determine [^125I]Aminopotentidine specifically bound. Compounds were screened at 1 μM or lower, using 1% DMSO as vehicle. Biochemical assay results are presented as the percent inhibition of specific binding in Table 2.

For assay [2], the target named is T2, human recombinant adrenergic α1D receptor (Homo sapiens, UniProt P25100).
T2 construct: expressed in transfected cells; host or cells: human embryonic kidney (HEK-293) cells
T2 sequence (P25100 1-572): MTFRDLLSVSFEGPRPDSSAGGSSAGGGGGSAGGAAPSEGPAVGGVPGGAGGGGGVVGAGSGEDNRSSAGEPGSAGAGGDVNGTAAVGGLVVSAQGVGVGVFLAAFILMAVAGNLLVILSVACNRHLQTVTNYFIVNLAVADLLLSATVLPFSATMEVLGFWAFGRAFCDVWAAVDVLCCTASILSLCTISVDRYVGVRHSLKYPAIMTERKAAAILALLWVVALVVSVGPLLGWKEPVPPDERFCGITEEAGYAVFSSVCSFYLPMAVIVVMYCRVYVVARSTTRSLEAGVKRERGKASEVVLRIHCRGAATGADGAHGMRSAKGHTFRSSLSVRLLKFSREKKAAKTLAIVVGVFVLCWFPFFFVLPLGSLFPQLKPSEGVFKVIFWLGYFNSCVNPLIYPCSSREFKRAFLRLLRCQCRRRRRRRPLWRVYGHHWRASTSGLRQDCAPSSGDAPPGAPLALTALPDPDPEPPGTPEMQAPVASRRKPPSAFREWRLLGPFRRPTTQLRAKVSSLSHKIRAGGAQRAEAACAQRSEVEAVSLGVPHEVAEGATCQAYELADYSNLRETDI
Nature of the assay: Adrenergic α1D radioligand binding assay. The following applies: 1 μM; [3H]Prozosin specific binding; read-out: Percent Inhibition of ligand binding, Adrenergic (1 μM ligand conc.) α1D. The method, then:
To evaluate in radioligand binding assays the activity of compounds of the invention, human recombinant adrenergic α1D receptor expressed in human embryonic kidney (HEK-293) cells [Kenny, B. A. et al. Br. J. Pharmacol. (1995), 115(6):981] in a 50 mM Tris-HCl buffer, pH 7.4, was used. Compounds of invention were incubated with 0.6 nM [^3H]Prozosin for 60 min. at 25° C. Non-specific binding was estimated in the presence of 10 μM phentolamine. Receptor proteins were filtered and washed, the filters were then counted to determine [^3H]Prozosin specifically bound. Compounds were screened at 1 μM or lower, using 1% DMSO as vehicle. Compounds of the invention were tested in this biochemical assay. Biochemical assay results for representative compounds were presented as the percent inhibition of specific binding in Table 3.

Assay [3] deals with T3, human recombinant adrenergic α2B receptor (Homo sapiens, UniProt P18089).
T3 construct: expressed in transfected cells; host or cells: Chinese hamster ovary (CHO-K1) cells
T3 sequence (P18089 1-450): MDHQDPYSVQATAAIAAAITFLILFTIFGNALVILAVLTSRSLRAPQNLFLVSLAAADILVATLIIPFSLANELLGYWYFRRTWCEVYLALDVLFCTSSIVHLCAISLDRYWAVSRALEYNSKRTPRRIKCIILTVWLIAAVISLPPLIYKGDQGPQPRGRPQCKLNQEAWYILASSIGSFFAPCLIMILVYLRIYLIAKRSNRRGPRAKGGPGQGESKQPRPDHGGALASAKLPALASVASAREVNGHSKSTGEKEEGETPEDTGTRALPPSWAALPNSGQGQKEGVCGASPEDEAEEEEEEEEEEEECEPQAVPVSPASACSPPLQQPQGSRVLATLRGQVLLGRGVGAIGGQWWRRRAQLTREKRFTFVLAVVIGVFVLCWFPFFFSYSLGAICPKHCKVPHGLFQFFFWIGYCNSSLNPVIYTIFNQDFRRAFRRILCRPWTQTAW
Nature of the assay: Adrenergic α2B radioligand binding assay. The note with it: 1 μM; [3H]Rauwolscine specific binding; read-out: Percent Inhibition of ligand binding, Adrenergic (1 μM ligand conc.) α2B. The method, then:
To evaluate in radioligand binding assays the activity of compounds of the invention, human recombinant adrenergic α2B receptor expressed in Chinese hamster ovary (CHO-K1) cells [Uhlen, S et al., Eur J Pharmacol. (1998), 343(1):93] in a modified Tris-HCl buffer (50 mM Tris-HCl, pH 7.4, 12.5 mM MgCl2, 1 mM EDTA, 0.2% BSA) was used. Compounds of the invention were incubated with 2.5 nM [^3H]Rauwolscine for 60 min. at 25° C. Non-specific binding was estimated in the presence of 10 μM Prozosin. Receptor proteins were filtered and washed, the filters were then counted to determine [^3H]Rauwolscine specifically bound. Compounds were screened at 1 μM or lower, using 1% DMSO as vehicle. Compounds of the invention were tested in this biochemical assay. Biochemical assay results for representative compounds were presented as the percent inhibition of specific binding in Table 3.

The target of assay [4] is human recombinant dopamine D2L receptor (Homo sapiens, UniProt P14416). The assay can be described thus: Dopamine D2L radioligand binding assay. The note with it: [3H]Spiperone specific binding; for inhibition at 1 µM: read-out: Percent Inhibition of ligand binding, Dopamine (1 μM ligand conc.) D2L. The method, then: To evaluate in radioligand binding assays the activity of compounds of the invention, human recombinant dopamine D2L receptor expressed in Chinese hamster ovary (CHO) cells [Grandy, D. K. et al. Proc. Natl. Acad. Sci. USA. (1989), 86:9762; Hayes, G. et al., Mol. Endocrinol. (1992), 6:920] in a modified Tris-HCl buffer (50 mM Tris-HCl, pH 7.4, 1.4 mM Ascorbic Acid, 0.001% BSA, 150 mM NaCl) was used. Compounds of the invention were incubated with 0.16 nM [^3H]Spiperone for 120 min. at 25° C. Non-specific binding was estimated in the presence of 10 μM Haloperidol. Receptor proteins were filtered and washed, the filters were then counted to determine [^3H]Spiperone specifically bound. Compounds were screened at 1 μM or lower, using 1% DMSO as vehicle. Biochemical assay results are presented as the percent inhibition of specific binding in Table 3.
Sequence of human recombinant dopamine D2L receptor (P14416 whole entry): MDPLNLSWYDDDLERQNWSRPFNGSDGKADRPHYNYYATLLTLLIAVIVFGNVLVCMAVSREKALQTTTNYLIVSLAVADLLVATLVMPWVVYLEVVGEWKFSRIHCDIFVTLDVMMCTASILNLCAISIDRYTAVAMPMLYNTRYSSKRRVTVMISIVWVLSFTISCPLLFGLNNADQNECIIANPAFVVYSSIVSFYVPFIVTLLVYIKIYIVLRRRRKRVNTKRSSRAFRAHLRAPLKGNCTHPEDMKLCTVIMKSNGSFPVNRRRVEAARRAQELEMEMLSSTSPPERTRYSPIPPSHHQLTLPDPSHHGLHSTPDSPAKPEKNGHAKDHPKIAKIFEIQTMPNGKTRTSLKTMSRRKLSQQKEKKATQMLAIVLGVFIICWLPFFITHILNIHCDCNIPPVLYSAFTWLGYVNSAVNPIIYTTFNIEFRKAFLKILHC

T1 sequence (P25021 whole entry): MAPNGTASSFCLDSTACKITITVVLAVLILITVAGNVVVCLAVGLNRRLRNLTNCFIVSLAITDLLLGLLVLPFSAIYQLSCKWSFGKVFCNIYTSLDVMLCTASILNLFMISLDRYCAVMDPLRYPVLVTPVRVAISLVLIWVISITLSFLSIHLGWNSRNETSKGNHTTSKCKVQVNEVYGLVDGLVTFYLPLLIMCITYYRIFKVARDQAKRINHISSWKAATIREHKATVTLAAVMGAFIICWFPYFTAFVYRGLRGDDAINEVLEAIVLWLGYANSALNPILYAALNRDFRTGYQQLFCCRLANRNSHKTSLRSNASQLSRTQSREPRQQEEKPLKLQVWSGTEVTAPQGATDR

With `Cc1ccc2c(c1)c1c(n2CCc2ccc(C(F)(F)F)nc2)CN2CCC1C2` (stereo not shown) [Compound 1], the inhibition at 1 µM in assay [1] came out at 0%; in assay [2], 51%; in assay [3], 7%; in assay [4] it was 8%.
In the same order, the values of `Cc1ccc2c(c1)c1c(n2CC(C)(O)c2ccc(F)cc2)CN2CCC1C2` (stereo not shown) [Compound 2] are 8%, 15%, 84% and 7%.
Turning to `C=C(Cn1c2c(c3cc(C)ccc31)C1CCN(C2)C1)c1ccc(F)cc1` (stereo not shown) [Compound 3], the inhibition at 1 µM in assay [1] came to 25%; in assay [2], 93%; in assay [3], 93%; in assay [4] it was 12%. Moreover, in assay [4], the “Percent Inhibition of ligand binding, Dopamine (1 μM ligand conc.) D2L” value amounted to 21%.
For `Cc1ccc2c(c1)c1c(n2CC(O)c2ccccc2)CN2CCC1C2` (stereo not shown) [Compound 4], the inhibition at 1 µM in assay [1] amounted to 5%; in assay [2], 54%; in assay [3], 89%; in assay [4], 3%.
For `Cc1ccc(C(O)Cn2c3c(c4cc(C)ccc42)C2CCN(C3)C2)cc1` (stereo not shown) [Compound 5], the inhibition at 1 µM in assay [1] stood at 4%; in assay [2] it was 34%; in assay [3] it was 78%; in assay [4] it was 6%.
In the same order, the values of `COc1ccc(C(O)Cn2c3c(c4cc(C)ccc42)C2CCN(C3)C2)cc1F` (stereo not shown) [Compound 6] are -5%, 28%, 73% and -1%.
The like results for `Cc1ccc2c(c1)c1c(n2CC(=O)N2CCCCC2)CN2CCC1C2` (stereo not shown) [Compound 7] were, in that order, -4%, -7%, 0% and -3%.
`COc1ccc(C(O)Cn2c3c(c4cc(C)ccc42)C2CCN(C3)C2)cc1OC` (stereo not shown) [Compound 8]: the inhibition at 1 µM is 2% in assay [1], 20% in assay [2], 34% in assay [3] and -16% in assay [4].
In the same order, the values of `Cc1ccc2c(c1)c1c(n2CCc2cncc(F)c2)CN2CCC1C2` (stereo not shown) [Compound 9] are 6%, 24%, 45% and 9%.
The like results for `Cc1ccc(/C=C/n2c3c(c4cc(C)ccc42)C2CCN(C3)C2)cc1` (stereo not shown) [Compound 10] were, in that order, 6%, 73%, 66% and 18%.
The like results for `Cc1ccc2c(c1)c1c(n2CCc2ccccn2)CN2CCC1C2` (stereo not shown) [Compound 11] were, in that order, -2%, 26%, 48% and -6%.
On to `Cc1ccc2c(c1)c1c(n2CCc2ccc(C)nc2)CN2CCC1C2` (stereo not shown) [Compound 12], for which the inhibition at 1 µM in assay [1] came to 4%; in assay [2] it was 25%; in assay [3], 16%; in assay [4] it was 0%.
In the same order, the values of `Cc1ccc2c(c1)c1c(n2CC(C)(O)c2ccc(Cl)c(Cl)c2)CN2CCC1C2` (stereo not shown) [Compound 13] are 8%, 14%, 99% and -2%.
In the same order, the values of `Cc1ccc2c(c1)c1c(n2CC(C)(O)c2ccc(Cl)cc2Cl)CN2CCC1C2` (stereo not shown) [Compound 14] are 24%, -5%, 68% and 11%.
In the same order, the values of `Cc1ccc2c(c1)c1c(n2CC(C)(O)c2ccc(F)c(F)c2)CN2CCC1C2` (stereo not shown) [Compound 15] are 13%, 28%, 106% and 0%.
Turning to `Cc1ccc2c(c1)c1c(n2CC(C)(O)c2ccc(Cl)cc2)CN2CCC1C2` (stereo not shown) [Compound 16], the inhibition at 1 µM in assay [1] was 10%; in assay [2] it was 24%; in assay [3] it was 103%; in assay [4] it was 5%.
With `Cc1ccc2c(c1)c1c(n2C#Cc2ccc(Cl)cc2)CN2CCC1C2` (stereo not shown) [Compound 35], the inhibition at 1 µM in assay [1] was 19%; in assay [4], -6%.
Regarding `C/C(=C/n1c2c(c3cc(C)ccc31)C1CCN(C2)C1)c1ccccc1F` (stereo not shown) [Compound 37], the values for the inhibition at 1 µM in assay [1] and in assay [4] were 22% and 5%, respectively.
In the same order, the values of `C/C(=C\n1c2c(c3cc(C)ccc31)C1CCN(C2)C1)c1ccc(F)c(F)c1` (stereo not shown) [Compound 39] are 20% and 0%.
In the same order, the values of `C/C(=C\n1c2c(c3cc(C)ccc31)C1CCN(C2)C1)c1ccc(Cl)c(Cl)c1` (stereo not shown) [Compound 40] are 39% and 6%.
The like results for `COc1ccc(/C(C)=C/n2c3c(c4cc(C)ccc42)C2CCN(C3)C2)cc1F` (stereo not shown) [Compound 41] were, in that order, 24% and 17%.
As for `C/C(=C\n1c2c(c3cc(C)ccc31)C1CCN(C2)C1)c1cccnc1` (stereo not shown) [Compound 42], the inhibition at 1 µM in assay [1] was 1%; in assay [4], -10%.
Turning to `Cc1ccc2c(c1)c1c(n2C(=O)Cc2ccc(F)cc2)CN2CCC1C2` (stereo not shown) [Compound 43], the inhibition at 1 µM worked out at 7% in assay [1] and 11% in assay [4].
